Measured values from PMC8707548, “Restoring Tumour Selectivity of the Bioreductive Prodrug PR-104 by Developing an Analogue Resistant to Aerobic Metabolism by Human Aldo-Keto Reductase 1C3” (Pharmaceuticals, 2021).

Target: T1, recombinant AKR1C3 (human aldo-keto reductase 1C3) (Homo sapiens, UniProt P42330)
T1 construct: recombinant enzyme
T1 sequence (P42330 1-323): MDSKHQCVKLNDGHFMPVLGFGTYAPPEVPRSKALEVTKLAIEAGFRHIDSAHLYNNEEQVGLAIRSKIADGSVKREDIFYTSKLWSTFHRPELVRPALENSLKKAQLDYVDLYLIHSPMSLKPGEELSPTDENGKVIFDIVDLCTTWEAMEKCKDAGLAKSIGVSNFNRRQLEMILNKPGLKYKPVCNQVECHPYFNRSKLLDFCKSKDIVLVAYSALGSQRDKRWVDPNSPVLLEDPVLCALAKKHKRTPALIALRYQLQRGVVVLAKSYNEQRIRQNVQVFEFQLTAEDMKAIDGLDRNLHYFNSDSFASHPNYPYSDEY
Experiment: absorbance at […] nm, Michaelis-Menten fit
Format: biochemical
Details: 0.25 mM NAD(P)H, 10 mM Tris-Cl pH 7.0, 4% DMSO

## CS(=O)(=O)OCCN(CCBr)c1c(C(=O)NCCO)cc([N+](=O)[O-])cc1[N+](=O)[O-] [PR-104A]
  KM: kinetic parameters calculated for each (D)NBM using the following extinction coefficients: PR-104A
